Reference: patent US9233964B2, “Sulfamide piperazine derivatives as protein tyrosine kinase inhibitors and pharmaceutical use therof” (LEO PHARMA A/S, priority 2011, dated 2016)

Tests used:
Assay type in all cases: biochemical
[1] = target: T1, TYK2 (Homo sapiens, UniProt P29597); experiment: JAK kinase assay (HTRF, phosphorylation of synthetic peptide), TYK2; conditions: catalytic domain, ATP at Km (13 μM); read-out: TYK2 kinase inhibitory activity (EC50)
T1 construct: JAK1 (aa 850-1154) and TYK2 (aa 871-1187) are expressed with an N-terminally fused GST-tag; GST (N); purchased Carna Biosciences, Inc; host or cells: baculovirus expression system
T1 sequence (P29597 871-1187): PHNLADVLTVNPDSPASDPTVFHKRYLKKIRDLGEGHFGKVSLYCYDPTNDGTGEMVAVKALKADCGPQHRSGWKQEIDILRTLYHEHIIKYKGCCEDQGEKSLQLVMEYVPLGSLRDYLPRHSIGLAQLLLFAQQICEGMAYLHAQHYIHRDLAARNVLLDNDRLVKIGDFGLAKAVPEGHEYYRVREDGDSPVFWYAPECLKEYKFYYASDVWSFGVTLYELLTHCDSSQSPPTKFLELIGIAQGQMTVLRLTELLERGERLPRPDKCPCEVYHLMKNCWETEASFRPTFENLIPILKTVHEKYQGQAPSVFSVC
Description: (§1) Human baculovirus-expressed JAK1, 2, 3 and TYK2 were purchased from Carna Biosciences, Inc. All four purified enzymes contain only the catalytic domain. JAK1 (aa 850-1154) and TYK2 (aa 871-1187) are expressed with an N-terminally fused GST-tag, and JAK2 and JAK3 with an N-terminally fused His-tag.
(§2) Inhibition of phosphorylation of a synthetic peptide was measured in an HTRF-based assay using the TK substrate-Biotin from the Cisbio HTRFKinEASE TK kit. First, 2 μl of TK solution (TK substrate-biotin in kinase buffer [1× enzymatic buffer from HTRFKinEASE TK kit, 1 mM DTT]) is added to a plate containing 1 μl prediluted compound (final assay concentration DMSO: 0.75%). Then, 5 μl kinase-ATP mix (prepared in kinase buffer) is added to the wells and the plates are incubated at RT for 20-30 min. For all four kinases a concentration of ATP that corresponded to the Km for ATP was used. The final concentrations of buffers, substrate, kinase and ATP were: JAK1: 50 mM Hepes buffer pH 7.0, 0.01% BSA, 10 mM MgCl2, 1 mM DTT, 7 μM ATP, 50 nM SEB, 1 μM TK Substrate-Biotin and 5 ng JAK1; JAK2: 50 mM Hepes buffer pH 7.0, 0.01% BSA, 5 mM MgCl2, 1 mM DTT, 4 μM ATP, 1 μM TK Substrate-Biotin and 0.1 ng JAK2; JAK3: 50 mM Hepes buffer pH 7.0, 0.01% BSA, 5 mM MgCl2, 1 mM DTT, 2 μM ATP, 1 μM TK Substrate-Biotin and 0.3 ng JAK3; TYK2: 50 mM Hepes buffer pH 7.0, 0.01% BSA, 5 mM MgCl2, 1 mM DTT, 13 μM ATP, 50 nM SEB, 1 μM TK Substrate-Biotin and 0.8 ng TYK2. Thereafter, the kinase reaction is stopped by adding 4 μl detection mix (final concentrations: 50 mM Hepes buffer pH 7.0, 0.01% BSA, 0.8 M KF, 20 mM EDTA, 42 nM Streptavidin-XL665 and 1:400 STK Ab Cryptate) and the plates are incubated overnight in the dark. The HTRF signal is read using an Envision plate reader.

[2] = target: T2, JAK2 (Homo sapiens, UniProt O60674); experiment: JAK kinase assay (HTRF, phosphorylation of synthetic peptide), JAK2; conditions: catalytic domain, ATP at Km (4 μM); read-out: JAK2 kinase inhibitory activity (EC50)
T2 construct: All four purified enzymes contain only the catalytic domain; His (N); purchased Carna Biosciences, Inc; host or cells: baculovirus expression system
T2 sequence (O60674 849-1124 limits assumed): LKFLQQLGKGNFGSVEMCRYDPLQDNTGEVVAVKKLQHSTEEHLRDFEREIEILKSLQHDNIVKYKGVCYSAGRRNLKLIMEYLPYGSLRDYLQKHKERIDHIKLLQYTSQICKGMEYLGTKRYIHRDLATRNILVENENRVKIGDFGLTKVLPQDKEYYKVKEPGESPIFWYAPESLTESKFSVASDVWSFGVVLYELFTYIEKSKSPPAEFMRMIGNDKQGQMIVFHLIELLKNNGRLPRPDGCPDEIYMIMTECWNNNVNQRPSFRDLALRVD
Description: as §1, §2

[3] = target: T3, JAK1 (Homo sapiens, UniProt P23458); experiment: JAK kinase assay (HTRF, phosphorylation of synthetic peptide), JAK1; conditions: catalytic domain, ATP at Km (7 μM); read-out: JAK1 kinase inhibitory activity (EC50)
T3 construct: JAK1 (aa 850-1154) and TYK2 (aa 871-1187) are expressed with an N-terminally fused GST-tag; GST (N); purchased Carna Biosciences, Inc; host or cells: baculovirus expression system
T3 sequence (P23458 850-1154): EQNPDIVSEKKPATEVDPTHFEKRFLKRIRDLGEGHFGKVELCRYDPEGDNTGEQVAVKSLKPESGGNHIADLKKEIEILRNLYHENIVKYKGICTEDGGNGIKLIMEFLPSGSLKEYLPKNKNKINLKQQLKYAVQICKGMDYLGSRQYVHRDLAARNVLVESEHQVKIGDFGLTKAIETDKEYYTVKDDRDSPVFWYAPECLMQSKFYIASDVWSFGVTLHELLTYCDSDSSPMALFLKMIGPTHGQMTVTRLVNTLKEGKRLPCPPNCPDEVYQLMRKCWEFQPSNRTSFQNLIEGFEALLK
Description: as §1, §2

[4] = target: T4, JAK3 (Homo sapiens, UniProt P52333); experiment: JAK kinase assay (HTRF, phosphorylation of synthetic peptide), JAK3; conditions: catalytic domain, ATP at Km (2 μM); read-out: JAK3 kinase inhibitory activity (EC50)
T4 construct: All four purified enzymes contain only the catalytic domain; His (N); purchased Carna Biosciences, Inc; host or cells: baculovirus expression system
T4 sequence (P52333 822-1111 limits assumed): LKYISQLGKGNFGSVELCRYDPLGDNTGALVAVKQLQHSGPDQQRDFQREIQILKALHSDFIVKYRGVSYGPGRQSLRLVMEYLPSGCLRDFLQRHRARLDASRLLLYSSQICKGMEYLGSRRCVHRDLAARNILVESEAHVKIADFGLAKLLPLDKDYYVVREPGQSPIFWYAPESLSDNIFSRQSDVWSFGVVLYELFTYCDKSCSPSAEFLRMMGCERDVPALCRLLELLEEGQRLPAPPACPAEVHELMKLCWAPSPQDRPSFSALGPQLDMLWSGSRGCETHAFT
Description: as §1, §2

| EC50 [1] | EC50 [2] | EC50 [3] | EC50 [4] | Structure (SMILES) |
| --- | --- | --- | --- | --- |
| < 100 nM | < 100 nM | < 100 nM | < 100 nM | O=S1(=O)CCC(CN(CCO)S(=O)(=O)N2CCN(c3ncnc4[nH]ccc34)CC23CC3)CC1 [Example 170, N-[(1,1-dioxothian-4-yl)methyl]-N-(2-hydroxyethyl)-5-(7H-pyrrolo[2,3-d]pyrimidin-4-yl)-5,8-diazaspiro[2.5]octane-8-sulfonamide] |
| > 500 nM | 100 to 500 nM | 100 to 500 nM | > 500 nM | CC(C)(C)OC(=O)N(CCCS(C)(=O)=O)S(=O)(=O)N1CCN(c2ncnc3[nH]ccc23)CC12CC2 [Example 196, tert-butyl N-(3-methylsulfonylpropyl)-N-[[5-(7H-pyrrolo[2,3-d]pyrimidin-4-yl)-5,8-diazaspiro[2.5]octan-8-yl]sulfonyl]carbamate] |
| > 500 nM | < 100 nM | < 100 nM | 100 to 500 nM | CN(CCCc1ccc(C#N)cc1)S(=O)(=O)N1CCN(c2ncnc3[nH]ccc23)CC12CC2 [Example 29, 7-(7H-Pyrrolo[2,3-d]pyrimidin-4-yl)-4,7-diaza-spiro[2.5]octane-4-sulfonic acid [3-(4-cyano-phenyl)-propyl]-methyl-amide] |
| 100 to 500 nM | < 100 nM | < 100 nM | < 100 nM | C=C1CCC(CN(C)S(=O)(=O)N2CCN(c3ncnc4[nH]ccc34)CC23CC3)CC1 [Example 87, N-methyl-N-[(4-methylenecyclohexyl)methyl]-5-(7H-pyrrolo[2,3-d]pyrimidin-4-yl)-5,8-diazaspiro[2.5]octane-8-sulfonamide] |
| – | < 100 nM | < 100 nM | < 100 nM | O=S(=O)(NCCO)N1CCN(c2ncnc3[nH]ccc23)CC12CC2 [Example 53, 7-(7H-Pyrrolo[2,3-d]pyrimidin-4-yl)-4,7-diaza-spiro[2.5]octane-4-sulfonic acid (2-hydroxy-ethyl)-amide] |
| – | < 100 nM | < 100 nM | < 100 nM | N#CCCN(C1CC1)S(=O)(=O)N1CCN(c2ncnc3[nH]ccc23)CC12CC2 [Example 41, 7-(7H-Pyrrolo[2,3-d]pyrimidin-4-yl)-4,7-diaza-spiro[2.5]octane-4-sulfonic acid (2-cyano-ethyl)-cyclopropyl-amide] |

Further lines, the compound ahead of its results:

| Structure (SMILES) | EC50 [1] | EC50 [2] | EC50 [3] | EC50 [4] |
| --- | --- | --- | --- | --- |
| O=CNS(=O)(=O)N1CCN(c2ncnc3[nH]ccc23)CC12CC2 [Example 176, N-[[5-(7H-pyrrolo[2,3-d]pyrimidin-4-yl)-5,8-diazaspiro[2.5]octan-8-yl]sulfonyl]formamide] | > 500 nM | < 100 nM | < 100 nM | 100 to 500 nM |
| CN(C1CN(C(=O)CCO)C1)S(=O)(=O)N1CCN(c2ncnc3[nH]ccc23)CC12CC2 [Example 179, N-[1-(3-hydroxypropanoyl)azetidin-3-yl]-N-methyl-5-(7H-pyrrolo[2,3-d]pyrimidin-4-yl)-5,8-diazaspiro[2.5]octane-8-sulfonamide] | 100 to 500 nM | < 100 nM | < 100 nM | 100 to 500 nM |
| CN(CC1CCN(C=O)C1)S(=O)(=O)N1CCN(c2ncnc3[nH]ccc23)CC12CC2 (stereo not drawn) [Example 128, N-[(1-formylpyrrolidin-3-yl)methyl]-N-methyl-5-(7H-pyrrolo[2,3-d]pyrimidin-4-yl)-5,8-diazaspiro[2.5]octane-8-sulfonamide] | > 500 nM | < 100 nM | < 100 nM | < 100 nM |
| N#CCCCN(C1CCC1)S(=O)(=O)N1CCN(c2ncnc3[nH]ccc23)CC12CC2 [Example 102, N-(3-cyanopropyl)-N-cyclobutyl-5-(7H-pyrrolo[2,3-d]pyrimidin-4-yl)-5,8-diazaspiro[2.5]octane-8-sulfonamide] | 100 to 500 nM | < 100 nM | < 100 nM | < 100 nM |
| CCN(C1CCC1)S(=O)(=O)N1CCN(c2ncnc3[nH]ccc23)CC12CC2 [Example 99, N-cyclobutyl-N-ethyl-5-(7H-pyrrolo[2,3-d]pyrimidin-4-yl)-5,8-diazaspiro[2.5]octane-8-sulfonamide] | < 100 nM | < 100 nM | < 100 nM | 100 to 500 nM |
| CN(Cc1ccc(OC(F)(F)F)cc1)S(=O)(=O)N1CCN(c2ncnc3[nH]ccc23)CC12CC2 [Example 80, N-methyl-5-(7H-pyrrolo[2,3-d]pyrimidin-4-yl)-N-[[4-(trifluoromethoxy)phenyl]methyl]-5,8-diazaspiro[2.5]octane-8-sulfonamide] | > 500 nM | 100 to 500 nM | 100 to 500 nM | > 500 nM |
| O=S(=O)(N(CCc1ccccc1)CC1CC1)N1CCN(c2ncnc3[nH]ccc23)CC12CC2 [Example 2, 7-(7H-Pyrrolo[2,3-d]pyrimidin-4-yl)-4,7-diaza-spiro[2.5]octane-4-sulfonic acid cyclopropylmethyl-phenethyl-amide] | > 500 nM | < 100 nM | < 100 nM | 100 to 500 nM |
| CN(C[C@@H]1CCCN1C(=O)CO)S(=O)(=O)N1CCN(c2ncnc3[nH]ccc23)CC12CC2 [Example 192, N-[[(2S)-1-(2-hydroxyacetyl)pyrrolidin-2-yl]methyl]-N-methyl-5-(7H-pyrrolo[2,3-d]pyrimidin-4-yl)-5,8-diazaspiro[2.5]octane-8-sulfonamide] | < 100 nM | < 100 nM | < 100 nM | < 100 nM |
| O=S(=O)(N(Cc1ccccc1)Cc1ccccc1)N1CCN(c2ncnc3[nH]ccc23)CC12CC2 [Example 146, N,N-dibenzyl-5-(7H-pyrrolo[2,3-d]pyrimidin-4-yl)-5,8-diazaspiro[2.5]octane-8-sulfonamide] | > 500 nM | 100 to 500 nM | 100 to 500 nM | > 500 nM |
| CN(CC1CCN(S(=O)(=O)CC2CC2)C1)S(=O)(=O)N1CCN(c2ncnc3[nH]ccc23)CC12CC2 (stereo not drawn) [Example 122, N-[[1-(cyclopropylmethylsulfonyl)pyrrolidin-3-yl]methyl]-N-methyl-5-(7H-pyrrolo[2,3-d]pyrimidin-4-yl)-5,8-diazaspiro[2.5]octane-8-sulfonamide] | 100 to 500 nM | < 100 nM | < 100 nM | < 100 nM |
| CN(OCc1ccccc1)S(=O)(=O)N1CCN(c2ncnc3[nH]ccc23)CC12CC2 [Example 174, N-benzyloxy-N-methyl-5-(7H-pyrrolo[2,3-d]pyrimidin-4-yl)-5,8-diazaspiro[2.5]octane-8-sulfonamide] | 100 to 500 nM | < 100 nM | < 100 nM | 100 to 500 nM |
| CN(Cc1ccc(C(F)(F)F)cc1)S(=O)(=O)N1CCN(c2ncnc3[nH]ccc23)CC12CC2 [Example 81, N-methyl-5-(7H-pyrrolo[2,3-d]pyrimidin-4-yl)-N-[[4-(trifluoromethyl)phenyl]methyl]-5,8-diazaspiro[2.5]octane-8-sulfonamide] | > 500 nM | < 100 nM | < 100 nM | – |
| N#CCCCN(CCc1ccccc1)S(=O)(=O)N1CCN(c2ncnc3[nH]ccc23)CC12CC2 [Example 33, 7-(7H-Pyrrolo[2,3-d]pyrimidin-4-yl)-4,7-diaza-spiro[2.5]octane-4-sulfonic acid (3-cyano-propyl)-phenethyl-amide] | – | < 100 nM | < 100 nM | < 100 nM |
| N#CCCCCN(CCc1ccccc1)S(=O)(=O)N1CCN(c2ncnc3[nH]ccc23)CC12CC2 [Example 20, 7-(7H-Pyrrolo[2,3-d]pyrimidin-4-yl)-4,7-diaza-spiro[2.5]octane-4-sulfonic acid (4-cyano-butyl)-phenethyl-amide] | – | < 100 nM | < 100 nM | < 100 nM |
